Measured values taken from patent publication US20150219624A1, “METHODS FOR IDENTIFYING ANTI-CANCER COMPOUNDS” (MEMORIAL SLOAN KETTERING CANCER CENTER, priority 2013, published 2015).

Assays:
[1] = tested on: S6 phosphorylation and AKT (T308) phosphorylation; assay: Immunoblots of S6 and AKT phosphorylation in KOPT-K1 cells; format: cell-based, human; conditions: 25 nM, 48 hours
Description: (§1) Immunoblots. Lysates were made using Laemli lysis buffer. 30 ug of protein was loaded onto SDS-PAGE gels then transferred onto Immobilon-FL Transfer Membranes (Millipore IPFL00010). The antibodies used were α-Tubulin (Sigma T5168), β-actin (Sigma A5316), Myc (Santa Cruz Biotechnology sc-40), p-Akt 308 (Cell Signaling 9275), Akt (Cell Signaling 9272), S6 (Cell Signaling 2317), and p-S6 (Cell Signaling 2215), Notch1 (Cell signaling 3608), Myb (Santa Cruz Biotechnology, sc-517), CDK6 (Cell Signaling 3136), EZH2 (Cell Signaling 5246), Mdm2 (Santa Cruz Biotechnology, sc-965), Bcl2 (Santa Cruz Biotechnology, sc-509), Run×1 (Cell Signaling 4336), and GAPDH (Cell Signaling 5174).
(§2) E) Simplified diagram of rapamycin and silvestrol mechanism of action.

[2] = tested on: primary human T-ALL samples; assay: Viability / apoptosis induction in primary human T-ALL samples; format: cell-based
Excerpt: as §2

[3] = tested on: JURKAT and KOPT-K1 cells; assay: Immunoblots of target proteins in human T-ALL lines; format: cell-based; conditions: 25 nM, immunoblot
Description: as §1
Given the complexity of the RF data analysis, it was important to directly confirm loss of expression for at least some of these proteins. Briefly, immunoblots on JURKAT and KOPT-K1 cells treated with silvestrol (25 nM) and loaded with equal amounts of total protein confirmed dramatic loss of MYC, NOTCH1, BCL2, and CCND3 proteins (FIG. 6A). The effect on MYC was especially striking, it was dose dependent (FIG. 6B), lasted for 48 h, and was also achieved in xenografts in vivo (Figure S6A-B). […] As expected, ACTIN, TUBULIN, and GAPDH were not affected (FIG. 6A). […] The small and significant increase in MYC mRNA levels might be consistent with prior reports of a MYC auto-regulatory mechanism (Penn et al., 1990a; Penn et al., 1990b) (FIG. 6C).
FIG. 6 depicts validation of selected silvestrol targets. A) Immunoblots of lysates from human T-ALL lines treated with silvestrol (25 nM) and probed as indicated. B) Immunoblots of lysates from JURKAT cells treated with escalating doses of silvestrol and probed as indicated. C) mRNA levels for the corresponding genes treated with vehicle (DMSO, black) or silvestrol (red, 25 nM); D) Volcano plot of mRNA expression changes of all TE Down and rDiff genes in T-ALL samples (n=9) compared to normal thymocytes (n=4). E) Kaplan-Meier analysis showing time to leukemia development (as in FIG. 1B). Wild-type HPCs transduced with NOTCH1-ICN and empty vector (black, n=14), Myb (red, n=4), Ccnd3 T283A (orange, n=5), or shEzh2 (orange, n=10), vavP-Bcl2 (brown, n=4), p53−/− (green, n=3). F) Effect of OmoMYCER activation on survival of leukemic animals; (d=0 represents start of therapy/tamoxifen (TAM) administration). Inset: clearance of GFP expressing murine T-ALL cells from the marrow upon OmomycER activation (Untr: untreated, TAM: tamoxifen). G) Competition experiment (as in FIG. 1C/D) showing the percentage of each starting GFP positive population of murine T-ALL cells partially transduced with the indicated constructs and treated with silvestrol (* indicates p<0.05).
FIG. 13 depicts the relative contribution of MYC and other silvestrol targets in T-ALL. […]

[4] = tested on: cap-dependent translation; assay: Dual-luciferase reporter assay (capped vs IRES-driven luciferase); format: cell-based; conditions: renilla and firefly luciferase either capped or under control of an IRES element
Description: Luciferase assays. Four tandem repeats of the (CGG)4 12-mer motif (GQs) or random sequence matched for length and GC content (random) were cloned into the 5′UTR of Renilla luciferase plasmid pGL4.73. Empty firefly luciferase plasmid pGL4.13 or HCV-IRES firefly were used as internal controls. Luciferase assays were performed using Dual-Luciferase Reporter Assay System (Promega E1960) following the manufacturer's instructions. GQs sequence: […]

[5] = tested on: KOPT-K1 xenografts; assay: KOPT-K1 xenograft study; conditions: for tumor growth: d 0-6, systemic; for toxicity, death, weight loss: treated mice, therapeutic doses
Description: Statistical analysis. All Kaplan-Meier curves were analyzed using the Mantel-Cox test. The significance of xenografted tumor size differences was determined using two-way repeated measures ANOVA tests. RT-PCRs were analyzed with two tailed t-tests.
Xenografts. 5,000,000 KOPT-K1 cells in 30% matrigel (BD 354234) were injected subcutaneously into C.B-17 scid mice. […] Tumor size was measured daily by caliper. P-values were calculated using 2-way repeated measures ANOVA.
Cycloheximide (C7698) and Rapamycin (R8781) were purchased from Sigma.
D) KOPT-K1 xenograft studies.

[6] = tested on: BE(2)C; assay: Silvestrol in neuroblastoma cell lines in vitro: BE(2)C; format: cell-based; conditions: Homo sapiens; BE(2)C cells, N-MYC
Description: (§3) The effect of silvestrol on several neuroblastoma cell lines was evaluated.

[7] = tested on: SKNCM; assay: Silvestrol in neuroblastoma cell lines in vitro: SKNCM; format: cell-based; conditions: SKNCM cells
Description: as §3

[8] = tested on: PANC-1; assay: Silvestrol sensitivity and KRAS protein levels in PANC-1; format: cell-based
Excerpt: KRAS has a long T1/2 compared to MYC, and therefore the effect is less pronounced. The in vitro activity of an S6 kinase inhibitor, rapamycin, silvestrol and combinations on PNAC1 and MiaPaca2 cells are shown in FIGS. 24B and 24C, respectively.

Q: Which results are given for (±)-CR-31-B?
A: phosphorylation of AKT (T308) [1]: did not lead to phosphorylation of AKT (T308); ribosomal S6 phosphorylation / S6 kinase activity [1]: does not affect S6 kinase activity; in vitro activity against T-ALL compared with silvestrol ([2]; not shown): similar; target protein levels compared with silvestrol result ([3]; 24H): same result was confirmed; block of cap-dependent versus IRES-dependent translation [4]: preferentially block cap-dependent over IRES-dependent translation; tumor growth ([5]; 0.2 mg/kg, n=8, p<0.001): significant delay in tumor growth; pathologic analysis of treated tumors (TUNEL, Ki-67) ([5]; treated KOPT-K1 tumors): diffuse apoptosis by TUNEL and loss of proliferation by Ki-67; toxicity, death, weight loss [5]: no severe toxicity, death, or weight loss

Q: For `COC(=O)[C@H]1[C@@H](O)[C@@]2(O)c3c(OC)cc(O[C@@H]4O[C@@H]([C@H](O)CO)CO[C@H]4OC)cc3O[C@@]2(c2ccc(OC)cc2)[C@@H]1c1ccccc1` [silvestrol], which IC50 [6] is on record?
A: Its IC50 is 0.0478 µM.

Q: And the “phosphorylation of AKT (T308)” value [1]?
A: The value was “did not lead to phosphorylation of AKT (T308)”.

Q: What about the “ribosomal S6 phosphorylation / S6 kinase activity” value [1] of the same compound?
A: The value was “does not affect S6 kinase activity”.

Q: And the IC50 [7]?
A: The IC50 was 0.0202 µM.

Q: What about the KRAS expression ([8]; PANC1 cells, 50 nM) of the same compound?
A: The KRAS expression was “loss of KRAS expression”.

Q: What about the KRAS expression ([8]; PANC-1, 20 nM) of the same compound?
A: The KRAS expression was “loss of KRAS expression”.

Q: What about the IC50 ([2]; primary human T-ALL samples in vitro, 48 hours) of the same compound?
A: Its IC50 is 0.003 to 0.013 µM.

Q: And the “ACTIN, TUBULIN and GAPDH protein levels” value [3]?
A: Its value is “not affected”.

Q: What about the “MYB, CDK6, EZH2 and RUNX1/AML1 protein expression” value [3] of the same compound?
A: The value was “somewhat less decreased”.

Q: And the “MYC, NOTCH1, BCL2 and CCND3 protein levels” value [3]?
A: Its value is “dramatic loss”.

Q: What about the “block of cap-dependent versus IRES-dependent translation” value [4] of the same compound?
A: Its value is “preferentially block cap-dependent over IRES-dependent translation”.

Q: And the tumor growth ([5]; 0.5 mg/kg, n=7, p<0.001)?
A: Its tumor growth is “significant delay in tumor growth”.

Q: And the “toxicity, death, weight loss” value [5]?
A: Its value is “no severe toxicity, death, or weight loss”.
